Source: patent US20230248626A1, “Compositions Comprising (Bio)-Alkanediols” (Symrise AG, priority 0001, published 2023)
Converted amounts (≈) assume the structure as drawn.

Key:
Assay type in all cases: cell-based
Escherichia coli (EC) = assay: Preservation efficacy test (PET), European Pharmacopoeia 5.1.3; conditions: 0.1% in o/w emulsion
Procedure: (§1) The preservation efficacy test (PET) was performed in accordance with European Pharmacopoeia § 5.1.3: The test is a reference European Pharmacopoeia method, that is to be used to evaluate the preservation system of a cosmetic or pharmaceutical preparation. The test consists of challenging the preparation under test, with prescribed inoculums of suitable microorganisms. The preservation porperties of the preparation are adequate if, in the conditions of the test, there is a significant fall or no increase, as appropriate, in the number of microorganisms in the inoculated preparations after the time prescribed.
(§2) The test microorganisms which were used, are the following:
(§3) Pseudomonas aeruginosa (PA) (bacterium); Staphylococcus aureus (SA) (bacterium); Escherichia coli (EC) (bacterium); Candida albicans (CA) (yeast); and Aspergillus brasiliensis (AB) (fungus).

[1] = tested on: Pseudomonas aeruginosa (PA); assay: as above; conditions: 0.1% in o/w emulsion
Procedure: as §1, §2, §3

[2] = tested on: Staphylococcus aureus (SA); assay: as above; conditions: 0.1% in o/w emulsion
Procedure: as §1, §2, §3

Candida albicans (CA) = assay: as above; conditions: 0.1% in o/w emulsion
Procedure: as §1, §2, §3

[3] = tested on: Aspergillus brasiliensis (AB); assay: as above; conditions: 0.1% in o/w emulsion
Procedure: as §1, §2, §3

human sebaceous glands = assay: Sebum production of micro-dissected, cultured human sebaceous glands (lipids/proteins after six days); parameters: sebum reduction: concentration or dose not given beside the values
Procedure: Additional tests were performed with human sebaceous glands in order to verify the modulatory activity of different 1,2-alkanediols and 2,3-alkanediols on sebum secretion. Several microbial species on the skin are lipid dependent and feed on the human sebum (e.g. Corynebacterium, Propionibacterium). Accordingly, sebum reduction can indirectly support the reduction of microorganisms on the skin and in this way also indirectly support e.g. dandruff or acne reduction.
For these experiments sebaceous glands had been micro-dissected and cultured with medium. The medium without any supplement served as untreated control. Medium with 5 μM Capsaicin served as positive control. Additionally, culture medium was supplemented with different concentrations of alkanediols. After six days the sebaceous glands were collected and lipids and proteins quantified. The total lipid amount being representative of sebum production was obtained by normalizing the quantified lipids upon the quantified proteins (i.e. mg of lipids/mg of proteins).

Candida albicans = assay: MIC test (growth inhibition, 96 well plates, OD); conditions: read-out: Minimum Inhibitory Concentration (MIC)
Procedure: (§4) The MIC test is a test on growth inhibition. Estimation of Minimum Inhibitory Concentration (MIC) is executed in 96 well plates. Through the comparison of bacterial growth with positive and negative controls via optical density (OD), different concentrations of given test substances are evaluated.
(§5) Bacteria are cultivated under adjusted conditions based on information of the German Collection of Microorganisms and Cell Cultures (DSMZ) and stored in 50% Glycerol prior to use. Afterwards, the following method was applied: Adding growth medium (according to microorganism) to each well of the microplate. Adding the test-substances in different concentrations, positive controls (water controls only with medium) and negative controls (benchmarks according to organism). Adding the microorganism in a concentration of 10^6 CFU/ml (CFU=colony forming units). Incubation of the microplates at appropriate conditions.
(§6) According to resulting growth, substance concentrations are labelled either as inhibiting or not and MIC is defined as the lowest concentration where a complete growth inhibition is visible. Experiments at concentration limits (highest concentration labelled as growth and lowest concentration labelled as inhibiting) are performed at least twice.

[4] = tested on: Staphylococcus epidermidis; assay: MIC test (growth inhibition, 96 well plates, OD)
Procedure: as §4, §5, §6

Corynebacterium xerosis = assay: MIC test (growth inhibition, 96 well plates, OD)
Procedure: as §4, §5, §6

Staphylococcus aureus = assay: MIC test (growth inhibition, 96 well plates, OD); conditions: read-out: Minimum Inhibitory Concentration (MIC)
Procedure: as §4, §5, §6

Corynebacterium jeikeium = assay: MIC test (growth inhibition, 96 well plates, OD); conditions: read-out: Minimum Inhibitory Concentration (MIC)
Procedure: as §4, §5, §6

Aspergillus niger = assay: MIC test (growth inhibition, 96 well plates, OD)
Procedure: as §4, §5, §6

Staphylococcus hominis = assay: MIC test (growth inhibition, 96 well plates, OD); conditions: read-out: Minimum Inhibitory Concentration (MIC)
Procedure: as §4, §5, §6

Propionibacterium acnes = assay: MIC test (growth inhibition, 96 well plates, OD); conditions: Cutibacterium acnes; read-out: Minimum Inhibitory Concentration (MIC)
Procedure: as §4, §5, §6

Anaerococcus octavius = assay: MIC test (growth inhibition, 96 well plates, OD)
Procedure: as §4, §5, §6

Escherichia coli = assay: MIC test (growth inhibition, 96 well plates, OD); conditions: read-out: Minimum Inhibitory Concentration (MIC)
Procedure: as §4, §5, §6

Aspergillus brasiliensis = assay: MIC and Kull synergy index of 1,2-/2,3-alkanediol mixtures; conditions: single 1,2-alkanediol, read-out: MIC Component A

CCCCCCCC(O)CO (stereo not drawn) [1,2-nonanediol]
number of microorganisms after 2 days (Escherichia coli (EC)): 6,700
number of microorganisms after 7 days (Escherichia coli (EC)): 1
number of microorganisms after 14 days (Escherichia coli (EC)): 1
number of microorganisms after 28 days (Escherichia coli (EC)): 1
number of microorganisms after 2 days [1]: 1
number of microorganisms after 7 days [1]: 1
number of microorganisms after 14 days [1]: 1
number of microorganisms after 28 days [1]: 1
number of microorganisms after 2 days [2]: 2,300
number of microorganisms after 7 days [2]: 1
number of microorganisms after 14 days [2]: 1
number of microorganisms after 28 days [2]: 1
number of microorganisms after 2 days (Candida albicans (CA)): 1,600,000
number of microorganisms after 7 days (Candida albicans (CA)): 120,000
number of microorganisms after 14 days (Candida albicans (CA)): 890
number of microorganisms after 28 days (Candida albicans (CA)): 1
number of microorganisms after 2 days [3]: 2,300,000
number of microorganisms after 7 days [3]: 1,300,000
number of microorganisms after 14 days [3]: 1,200,000
number of microorganisms after 28 days [3]: 900,000
sebum reduction (human sebaceous glands; compared to untreated control, six days, single donor (FIG. 4)): 28%
concentration dependency of sebum reduction (in words) (human sebaceous glands; different donor (FIG. 5)): experimentally confirmed
MIC (Candida albicans): 1000 µg/mL (≈ 6.24 mM)
MIC [4]: 1000 µg/mL (≈ 6.24 mM)
MIC (Corynebacterium xerosis): 2500 µg/mL (≈ 15.6 mM)
MIC (Staphylococcus aureus): 1000 µg/mL (≈ 6.24 mM)
MIC (Corynebacterium jeikeium): 2500 µg/mL (≈ 15.6 mM)
MIC (Aspergillus niger): 2500 µg/mL (≈ 15.6 mM)
MIC (Staphylococcus hominis): 1000 µg/mL (≈ 6.24 mM)
MIC (Propionibacterium acnes): 1000 µg/mL (≈ 6.24 mM)
MIC (Anaerococcus octavius): 1000 µg/mL (≈ 6.24 mM)
MIC (Escherichia coli): 500 µg/mL (≈ 3.12 mM)
MIC (Aspergillus brasiliensis): 500 µg/mL
